This note sets out measurements from ChEMBL document CHEMBL5126608, “Development, Optimization, and In Vivo Validation of New Imidazopyridine Chemotypes as Dual TLR7/TLR9 Antagonists through Activity-Directed Sequential Incorporation of Relevant Structural Subunits” (J Med Chem, 2022).

The nature of data set [1]: Stability in mouse plasma assessed as parent compound remaining at 1 uM measured after 2 hrs by LC-MS/MS analysis.
A short description of data set [2]: Stability in human plasma assessed as parent compound remaining at 1 uM measured after 2 hrs by LC-MS/MS analysis.
A short description of data set [3]: Apparent permeability across apical to basolateral side in human Caco-2 cells measured after 120 mins by LC-MS/MS analysis.
A short description of data set [4]: Apparent permeability across basolateral to apical side in human Caco-2 cells measured after 120 mins by LC-MS/MS analysis.
The nature of data set [5]: Efflux ratio of apparent permeability across basolateral to apical side to apical to basolateral side in human Caco-2 cells measured after 120 mins by LC-MS/MS analysis. For orientation: Caco-2 cells form a polarised layer with tight junctions and transporters.
In data set [6] the target is T1, Toll-like receptor 9 (Homo sapiens, UniProt Q9NR96).
T1 sequence (Q9NR96 whole entry): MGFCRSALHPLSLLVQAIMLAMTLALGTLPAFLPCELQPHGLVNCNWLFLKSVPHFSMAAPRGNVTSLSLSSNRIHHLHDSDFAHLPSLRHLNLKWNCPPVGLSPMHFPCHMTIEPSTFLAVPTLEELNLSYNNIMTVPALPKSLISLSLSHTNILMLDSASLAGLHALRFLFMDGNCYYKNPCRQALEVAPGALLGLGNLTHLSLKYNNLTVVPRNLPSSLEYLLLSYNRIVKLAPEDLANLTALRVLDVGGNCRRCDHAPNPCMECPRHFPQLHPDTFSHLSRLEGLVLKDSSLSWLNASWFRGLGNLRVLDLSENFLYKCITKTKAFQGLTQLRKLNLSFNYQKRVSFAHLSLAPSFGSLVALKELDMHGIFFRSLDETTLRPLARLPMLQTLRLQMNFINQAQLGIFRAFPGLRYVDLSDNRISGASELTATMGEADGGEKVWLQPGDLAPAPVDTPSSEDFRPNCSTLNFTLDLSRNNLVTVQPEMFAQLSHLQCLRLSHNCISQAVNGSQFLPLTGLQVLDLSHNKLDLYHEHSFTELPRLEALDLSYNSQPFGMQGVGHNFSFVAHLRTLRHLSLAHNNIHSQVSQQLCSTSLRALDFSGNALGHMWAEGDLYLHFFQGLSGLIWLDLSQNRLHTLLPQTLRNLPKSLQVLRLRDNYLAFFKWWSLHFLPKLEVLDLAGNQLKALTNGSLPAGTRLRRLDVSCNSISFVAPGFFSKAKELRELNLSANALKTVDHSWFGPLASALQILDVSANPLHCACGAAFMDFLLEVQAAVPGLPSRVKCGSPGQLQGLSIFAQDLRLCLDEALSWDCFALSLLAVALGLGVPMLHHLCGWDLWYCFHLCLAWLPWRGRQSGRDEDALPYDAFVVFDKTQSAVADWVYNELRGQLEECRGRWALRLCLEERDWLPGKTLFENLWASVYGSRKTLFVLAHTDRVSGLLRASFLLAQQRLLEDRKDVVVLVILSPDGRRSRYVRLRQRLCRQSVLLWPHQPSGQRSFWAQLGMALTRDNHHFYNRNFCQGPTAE
The data set is described as follows: Antagonist activity at human TLR9 expressed in HEK-blue hTLR9 cells assessed as inhibition of CpGB-induced NFkappaB activation preincubated with compound for 1 hrs followed by CpGB addition and measured next day by SEAP-based spectrophotometry assay. The class given is cell-based.

The target in data set [7] is T2, Toll-like receptor 8 (Homo sapiens, UniProt Q9NR97).
T2 sequence (Q9NR97 whole entry): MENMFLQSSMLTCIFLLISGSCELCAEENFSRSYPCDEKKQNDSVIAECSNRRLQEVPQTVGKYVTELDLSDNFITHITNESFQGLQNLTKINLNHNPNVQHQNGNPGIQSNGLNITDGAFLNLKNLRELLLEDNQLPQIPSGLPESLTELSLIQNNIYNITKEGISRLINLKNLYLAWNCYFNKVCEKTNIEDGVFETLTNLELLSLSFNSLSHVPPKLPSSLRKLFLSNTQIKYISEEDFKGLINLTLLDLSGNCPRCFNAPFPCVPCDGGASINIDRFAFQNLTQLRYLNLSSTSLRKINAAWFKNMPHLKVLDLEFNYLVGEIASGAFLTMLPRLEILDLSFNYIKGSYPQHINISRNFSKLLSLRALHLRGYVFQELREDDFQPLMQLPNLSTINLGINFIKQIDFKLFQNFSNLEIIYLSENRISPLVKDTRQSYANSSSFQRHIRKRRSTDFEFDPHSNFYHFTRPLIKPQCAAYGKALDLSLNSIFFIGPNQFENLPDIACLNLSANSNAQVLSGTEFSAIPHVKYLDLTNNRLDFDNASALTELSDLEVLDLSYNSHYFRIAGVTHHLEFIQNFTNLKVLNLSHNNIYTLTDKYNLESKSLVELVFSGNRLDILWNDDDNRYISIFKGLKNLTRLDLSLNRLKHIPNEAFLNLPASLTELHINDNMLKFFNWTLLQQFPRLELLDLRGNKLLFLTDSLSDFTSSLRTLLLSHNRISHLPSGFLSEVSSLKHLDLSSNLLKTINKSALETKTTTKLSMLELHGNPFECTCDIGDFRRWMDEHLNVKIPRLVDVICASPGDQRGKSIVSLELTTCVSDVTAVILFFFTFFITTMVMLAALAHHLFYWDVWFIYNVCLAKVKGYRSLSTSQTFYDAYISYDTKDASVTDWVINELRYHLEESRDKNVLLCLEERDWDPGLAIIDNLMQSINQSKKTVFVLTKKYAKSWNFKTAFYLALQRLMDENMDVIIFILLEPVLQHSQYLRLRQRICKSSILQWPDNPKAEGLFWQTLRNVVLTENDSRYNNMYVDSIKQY

Data set [8] has as its target T3, Toll-like receptor 7 (Homo sapiens, UniProt Q9NYK1).
T3 sequence (Q9NYK1 whole entry): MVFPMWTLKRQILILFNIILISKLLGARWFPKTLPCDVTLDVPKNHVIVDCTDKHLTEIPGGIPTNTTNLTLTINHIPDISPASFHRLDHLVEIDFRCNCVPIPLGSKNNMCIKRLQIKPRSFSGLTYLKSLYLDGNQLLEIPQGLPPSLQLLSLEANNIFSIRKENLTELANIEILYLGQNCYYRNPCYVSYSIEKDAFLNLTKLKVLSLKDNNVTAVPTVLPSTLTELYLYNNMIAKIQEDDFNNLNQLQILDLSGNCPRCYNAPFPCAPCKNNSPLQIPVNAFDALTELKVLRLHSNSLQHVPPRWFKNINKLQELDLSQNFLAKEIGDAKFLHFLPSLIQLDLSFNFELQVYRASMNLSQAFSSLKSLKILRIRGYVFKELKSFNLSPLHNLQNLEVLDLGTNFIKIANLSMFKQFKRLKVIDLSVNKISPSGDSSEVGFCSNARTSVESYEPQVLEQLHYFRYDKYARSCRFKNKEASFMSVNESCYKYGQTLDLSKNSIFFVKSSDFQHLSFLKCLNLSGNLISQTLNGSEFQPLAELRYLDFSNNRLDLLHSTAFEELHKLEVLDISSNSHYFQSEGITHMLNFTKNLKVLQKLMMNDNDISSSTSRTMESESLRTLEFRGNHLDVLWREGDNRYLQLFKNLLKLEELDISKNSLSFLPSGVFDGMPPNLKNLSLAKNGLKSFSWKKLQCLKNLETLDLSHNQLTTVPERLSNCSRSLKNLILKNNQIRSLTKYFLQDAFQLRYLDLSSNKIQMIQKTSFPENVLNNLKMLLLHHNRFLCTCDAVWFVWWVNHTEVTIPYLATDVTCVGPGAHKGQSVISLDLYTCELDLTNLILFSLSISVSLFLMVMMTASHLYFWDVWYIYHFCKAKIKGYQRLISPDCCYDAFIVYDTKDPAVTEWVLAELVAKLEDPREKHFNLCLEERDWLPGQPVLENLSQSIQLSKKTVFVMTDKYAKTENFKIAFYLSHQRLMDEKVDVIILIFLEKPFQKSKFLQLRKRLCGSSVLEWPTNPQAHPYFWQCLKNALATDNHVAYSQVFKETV

Data set [9] deals with T1, Toll-like receptor 9.
Data set [10] is described as follows: physchem. The settings on record: buffer, pH 7.4.
The nature of data set [11]: in vitro. The following applies: mouse, microsomes.
Description: Metabolic stability in mouse liver microsomes assessed as half life at 5 uM measured for 60 mins by LC-MS/MS analysis
Data set [12] in a line: in vitro. The settings on record: human, microsomes.
Description: Metabolic stability in human liver microsomes assessed as half life at 5 uM measured for 60 mins by LC-MS/MS analysis
The nature of data set [13]: physchem. The settings on record: octanol/water.
Description: 1-Octanol/phosphate buffer partition coefficient, logD of the compound measured after 4.5 hrs by HPLC-UV analysis

In brackets after ≈: the same amount, converted by molar mass.

Usually amount remaining stands for what is left of the initial amount, in per cent. Consider `CC(C)[N+](C)(CCOC(=O)C1c2ccccc2Oc2ccccc21)C(C)C` [PROPANTHELINE], for which the amount remaining at 2 h, 1 µM in data set [1] and in data set [2] was 0% throughout.
Usually Papp A→B stands for the apparent permeability from the apical to the basolateral side of a cell layer. By Papp B→A is commonly meant how fast a substance crosses the layer from the basolateral side. Broadly, the efflux ratio is the permeability from basolateral to apical divided by that in the opposite direction, in the common usage. For `CC(C)NCC(O)COc1cccc2ccccc12` (centres undefined) [PROPRANOLOL], the Papp A→B at 2 h in data set [3] came out at 144 nm/s. The Papp B→A at 2 h in [4] amounted to 173 nm/s. The efflux ratio at 2 h in data set [5] is 1.2.
By IC50 is commonly meant the concentration that inhibits the measured activity by half. `COc1ccc(-c2cn3ccc(NCCCN4CCCC4)cc3n2)c(OC)c1`: the 50% inhibitory concentration (IC50) in [6] was found to be 0.019 µM; in data set [7], 17.2 µM.
`COc1ccc(-c2cn3ccc(N4CCN(C(=O)c5ccccc5)CC4)cc3n2)c(OCc2ccccc2)c1`: the results for the IC50 in data set [6] and in [8] were 1.06 µM and 24.9 µM, respectively.
Taken in the same sequence, the figures for `COc1ccc(-c2nc3cc(N4CCN(C(=O)C5CCCC5)CC4)ccn3c2CN2CCCC2)c(OC)c1` were 1.12 µM and 2.55 µM.
Consider `COc1ccc(-c2cn3ccc(N4CCN(C(C)C)CC4)cc3n2)c(OC)c1`, for which the half-inhibitory concentration (IC50) in [6] came to 0.04 µM; in [9], 0.028 µM.
The term solubility (kinetic) denotes the concentration staying in solution when a stock, usually in DMSO, is diluted into the medium. As a reminder, the half-life is the time in which the quantity being followed falls by half. Read a low half-life as fast loss. By logD is commonly meant the decadic logarithm of the distribution of all forms, ionised or not, between an organic phase and buffer at a given pH. High values mean higher lipophilicity, low ones lower lipophilicity. Take `COc1ccc(-c2cn3ccc(N4CCN(C(C)C)CC4)cc3n2)cc1`: the kinetic solubility at 24 h, 500 µM in data set [10] was determined as 46.1 µg/mL (≈ 131 µM). The results for the concentration for half-maximal inhibition (IC50) in [6] and in data set [8] were 0.044 µM and 1.23 µM, respectively. The figures for the half-life at 1 h, 5 µM in data set [11] and in data set [12] were 29.4 min and 66 min, respectively. Also, the fraction remaining at 2 h, 1 µM was 92.8% in data set [1] and 60.4% in [2]. The logD at 4.5 h in data set [13] is 1.64.
`COc1ccc(-c2cn3ccc(N4CCN(C5CCCC5)CC4)cc3n2)c(OC)c1` showed a kinetic solubility at 24 h, 500 µM in [10] of 10.2 µg/mL (≈ 25.1 µM). The IC50 amounted to 0.049 µM in [6] and 2.34 µM in data set [8]. For the same molecule, the figures for the half-life at 1 h, 5 µM in [11] and in [12] were 31.8 min and 37.6 min, respectively. Further, the amount remaining at 2 h, 1 µM was determined as 93.4% in data set [1] and 64.9% in data set [2]. Also, the logD at 4.5 h in data set [13] is 2.13.
Molecule `CCCSc1ccc2nc(NC(=O)OC)[nH]c2c1` [ALBENDAZOLE] returned a kinetic solubility at 24 h, 500 µM in data set [10] of 2.2 µg/mL (≈ 8.29 µM).
Consider `COc1ccc(-c2cn3ccc(N(C)C)cc3n2)c(OC)c1`, for which the IC50 stood at 0.766 µM in data set [6] and 3.78 µM in data set [8].
The like results for `COc1ccc(-c2cn3ccc(N4CCN(C(=O)OC(C)(C)C)CC4)cc3n2)c(OCCCN2CCOCC2)c1` were, in that order, 0.314 µM and 2.95 µM.
Turning to `COc1ccc(-c2cn3ccc(N4CCN(C5CCCC5)CC4)cc3n2)c(OCCCN2CCOCC2)c1`, the solubility (kinetic) at 24 h, 500 µM in data set [10] was determined as 2.6 µg/mL (≈ 5 µM). The Papp A→B at 2 h in data set [3] was found to be 154 nm/s. Further, the values for the IC50 in data set [6] and in data set [8] were 0.028 µM and 0.478 µM, respectively. For the same molecule, in [4], the apparent permeability from basolateral to apical (Papp B→A) at 2 h came to 81.7 nm/s. Also, the figures for the amount remaining at 2 h, 1 µM in [1] and in data set [2] were 90.6% and 94.3%, respectively. Further, in data set [5], the efflux ratio at 2 h was determined as 0.5.
With `COc1ccc(-c2cn3ccc(N4CCNCC4)cc3n2)cc1`, the IC50 is 0.803 µM in [6] and 0.559 µM in [8].
